Values of other authors as cited in US20200339511A1, “Substituted indoline derivatives as dengue viral replication inhibitors” (priority 2016, published 2020).

Test system: DENV-2
Conditions: analogous DENV-2 antiviral assay, reported activity; cited from earlier work

## CNC(=O)c1cccc(NC(C(=O)c2c[nH]c3ccccc23)c2ccccc2)c1 (stereo not shown) [(170) of WO-2013/045516]
  EC50: 440 nM
